# Where two headings read alike, the source gives them in different places.
# Assays:
# [1] = test system: Puccinia recondita f. sp. tritici; format: in vivo; details: foliar, 24 h, wheat leaf disc curative, applied 1 day after inoculation, compared to untreated control
# [2] = test system: Glomerella lagenarium (Colletotrichum lagenarium); assay: Example A3: Glomerella lagenarium (Colletotrichum lagenarium) / liquid culture (anthracnose); format: cell-based; details: Colletotrichum orbiculare; read-out: control of Glomerella lagenarium
# [3] = test system: Puccinia recondita f. sp. tritici; format: in vivo; details: foliar, wheat leaf disc preventative, inoculated 1 day after application, compared to untreated control
# [4] = test system: Alternaria solani; assay: Example A1: Alternaria solani / tomato / leaf disc (early blight); format: in vivo; details: foliar, tomato leaf disks inoculated 2 days after application, compared to untreated control
# [5] = test system: Monographella nivalis (Microdochium nivale); assay: Example A6: Monographella nivalis (Microdochium nivale) / liquid culture (foot rot cereals); format: cell-based; details: read-out: control of Monographella nivalis
# [6] = test system: Magnaporthe grisea (Pyricularia oryzae); assay: whole plant or invertebrate; format: in vivo; details: foliar, read-out: control of Magnaporthe grisea
# [7] = test system: Pyrenophora teres; assay: Example A12: Pyrenophora teres / barley / leaf disc preventative (net blotch); format: in vivo; details: foliar, inoculated 2 days after application, compared to untreated control
# [8] = test system: Phakopsora pachyrhizi; assay: Example A8: Phakopsora pachyrhizi / soybean / preventative (soybean rust); format: in vivo; details: foliar, soybean leaf disks preventative, inoculated one day after application, compared to untreated control
# [9] = test system: Mycosphaerella graminicola (Septoria tritici); assay: Example A14: Mycosphaerella graminicola (Septoria tritici) / liquid culture (Septoria blotch); format: cell-based; details: Zymoseptoria tritici; read-out: control of Mycosphaerella graminicola
# [10] = test system: Botryotinia fuckeliana (Botrytis cinerea); assay: Example A2: Botryotinia fuckeliana (Botrytis cinerea) / liquid culture (gray mould); format: cell-based; details: read-out: control of Botryotinia fuckeliana
# Excerpt: Example A2: Botryotinia Fuckeliana (Botrytis Cinerea) / Liquid Culture (Gray Mould) Conidia of the fungus from cryogenic storage are directly mixed into nutrient broth (Vogels broth). […] […].38.
# [11] = test system: Mycosphaerella arachidis (Cercospora arachidicola); assay: Example A7: Mycosphaerella arachidis (Cercospora arachidicola) / liquid culture (early leaf spot); format: cell-based; details: read-out: control of Mycosphaerella arachidis
Compound,pest or weed control at 200 ppm [1] [%],inhibition of growth at 20 ppm [2] [%],pest or weed control at 200 ppm [3] [%],pest or weed control at 200 ppm [4] [%],inhibition of growth at 20 ppm [5] [%],pest or weed control at 200 ppm [6] [%],pest or weed control at 200 ppm [7] [%],pest or weed control at 200 ppm [8] [%],inhibition of growth at 20 ppm [9] [%],inhibition of growth at 20 ppm [10] [%],inhibition of growth at 20 ppm [11] [%],pest or weed control at 200 ppm ([6]; 200 ppm) [%]
"COC(=O)CCC(=O)N(c1cc(F)nc(F)c1)c1nc(C(=O)NC2CCC2(C)C)c(C)s1 (stereo not drawn) [X.23, methyl 4-[(2,6-difluoro-4-pyridyl)-[4-[(2,2-dimethylcyclobutyl)carbamoyl]-5-methyl-thiazol-2-yl]amino]-4-oxo-butanoate]",≥ 80,≥ 80,≥ 80,≥ 80,≥ 80,≥ 80,≥ 80,–,–,–,–,–
"COC(C)C(=O)N(c1cc(F)nc(F)c1)c1nc(C(=O)NC2CCC2)c(C)s1 (stereo not drawn) [X.07, N-cyclobutyl-2-[(2,6-difluoro-4-pyridyl)-(2-methoxypropanoyl)amino]-5-methylthiazole-4-carboxamide]",–,–,≥ 80,–,–,≥ 80,–,≥ 80,–,–,–,–
"COC(=O)OC(C)C(=O)N(c1cc(F)nc(F)c1)c1nc(C(=O)NC2CCC23CCCC3)c(C)s1 (stereo not drawn) [X.03, [2-[(2,6-difluoro-4-pyridyl)-[5-methyl-4-(spiro[3.4]octan-3-ylcarbamoyl)thiazol-2-yl]amino]-1-methyl-2-oxo-ethyl] methyl carbonate]",–,≥ 80,≥ 80,–,≥ 80,≥ 80,≥ 80,–,≥ 80,–,–,–
"CC(=O)N(c1cc(F)nc(F)c1)c1nc(C(=O)NC2CCC2(C)C)c(C)s1 (stereo not drawn) [X.36, 2-[acetyl-(2,6-difluoro-4-pyridyl)amino]-N-(2,2-dimethylcyclobutyl)-5-methylthiazole-4-carboxamide]",–,≥ 80,≥ 80,≥ 80,≥ 80,≥ 80,≥ 80,–,≥ 80,≥ 70,–,–
"CCOC(=O)OC(C)C(=O)N(c1cc(F)nc(F)c1)c1nc(C(=O)NC2CCC23CCCC3)c(C)s1 (stereo not drawn) [X.04, [2-[(2,6-difluoro-4-pyridyl)-[5-methyl-4-(spiro[3.4]octan-3-ylcarbamoyl)thiazol-2-yl]amino]-1-methyl-2-oxo-ethyl] ethyl carbonate]",–,≥ 80,≥ 80,≥ 80,≥ 80,≥ 80,≥ 80,–,≥ 80,–,≥ 80,–
"Cc1sc(N(C(=O)CCl)c2cc(F)nc(F)c2)nc1C(=O)NC1CCC1(C)C (stereo not drawn) [X.17, 2-[(2-chloroacetyl)-(2,6-difluoro-4-pyridyl)amino]-N-(2,2-dimethylcyclobutyl)-5-methyl-thiazole-4-carboxamide]",≥ 80,≥ 80,≥ 80,≥ 80,≥ 80,≥ 80,≥ 80,≥ 80,≥ 80,–,≥ 80,–
"Cc1sc(N(C(=O)CF)c2cc(F)nc(F)c2)nc1C(=O)NC1CCC1(C)C (stereo not drawn) [X.27, 2-[(2,6-difluoro-4-pyridyl)-(2-fluoroacetyl)amino]-N-(2,2-dimethylcyclobutyl)-5-methyl-thiazole-4-carboxamide]",≥ 80,≥ 80,≥ 80,≥ 80,≥ 80,–,≥ 80,≥ 80,≥ 80,–,≥ 80,≥ 80
"Cc1sc(N(C(=O)Cc2ccccc2)c2cc(F)nc(F)c2)nc1C(=O)NC1CCC1(C)C (stereo not drawn) [X.09, 2-[(2,6-difluoro-4-pyridyl)-(2-phenylacetyl)amino]-N-(2,2-dimethylcyclobutyl)-5-methyl-thiazole-4-carboxamide]",–,≥ 80,≥ 80,≥ 80,≥ 80,≥ 80,–,–,≥ 80,–,–,–
"CC(=O)OC(C)C(=O)N(c1cc(F)nc(F)c1)c1nc(C(=O)NC2CCC23CCCC3)c(C)s1 (stereo not drawn) [X.01, [2-[(2,6-difluoro-4-pyridyl)-[5-methyl-4-(spiro[3.4]octan-3-ylcarbamoyl)thiazol-2-yl]amino]-1-methyl-2-oxo-ethyl] acetate]",–,≥ 80,≥ 80,≥ 80,≥ 80,≥ 80,≥ 80,–,≥ 80,–,–,–
"COC(=O)CC(=O)N(c1cc(F)nc(F)c1)c1nc(C(=O)NC2CCC2(C)C)c(C)s1 (stereo not drawn) [X.18, methyl 3-[(2,6-difluoro-4-pyridyl)-[4-[(2,2-dimethylcyclobutyl)carbamoyl]-5-methyl-thiazol-2-yl]amino]-3-oxo-propanoate]",≥ 80,≥ 80,≥ 80,≥ 80,≥ 80,≥ 80,≥ 80,–,≥ 80,–,≥ 80,–
"COCCOC(=O)N(c1cc(F)nc(F)c1)c1nc(C(=O)NC2CCC2(C)C)c(C)s1 (stereo not drawn) [X.28, 2-methoxyethyl N-(2,6-difluoro-4-pyridyl)-N-[4-[(2,2-dimethylcyclobutyl)carbamoyl]-5-methyl-thiazol-2-yl]carbamate]",≥ 80,–,≥ 80,–,≥ 80,≥ 80,–,–,–,–,–,–
"CC(=O)OCC(=O)N(c1cc(F)nc(F)c1)c1nc(C(=O)NC2CCC2(C)C)c(C)s1 (stereo not drawn) [X.08, [2-[(2,6-difluoro-4-pyridyl)-[4-[(2,2-dimethylcyclobutyl)carbamoyl]-5-methyl-thiazol-2-yl]amino]-2-oxo-ethyl] acetate]",≥ 80,≥ 80,≥ 80,≥ 80,≥ 80,≥ 80,≥ 80,≥ 80,≥ 80,–,≥ 80,–
"Cc1sc(N(C(=O)CC(F)(F)F)c2cc(F)nc(F)c2)nc1C(=O)NC1CCC1(C)C (stereo not drawn) [X.21, 2-[(2,6-difluoro-4-pyridyl)-(3,3,3-trifluoropropanoyl)amino]-N-(2,2-dimethylcyclobutyl)-5-methyl-thiazole-4-carboxamide]",≥ 80,≥ 80,≥ 80,≥ 80,≥ 80,≥ 80,–,–,≥ 80,–,≥ 80,–
